Assays:
Type in all cases: cell-based
[1] = test system: Micrococcus aloeverae; experiment: Measurement of viable bacterial count on fabric; conditions: agent 250 μg/fabric g
Protocol: (§1) After culture on fabric prepared in the same manner as in the above (1), 9 mL of an LP diluent (manufactured by NIHON PHARMACEUTICAL CO., LTD.) was added, and the extraction of the bacteria was carried out under ultrasound for 10 minutes. The extraction liquid was poured and mixed to an SCD-LP agar medium (NIHON PHARMACEUTICAL CO., LTD.), and culture was thereafter carried out at 37° C.; for a day. The number of colonies obtained on each piece of the fabric was counted, and a common logarithm value thereof was measured as the viable bacterial count. […] In addition, the […], the more the viable bacterial count of the microorganism is maintained.
(§2) The metabolism of 14-methylhexadecanoic acid by bacteria of the genus Micrococcus was tested in the same manner as in example 1.
(§3) In this example, Micrococcus aloeverae (strain isolated from clothing) was used as a microorganism.
(§4) Further, in this example, a bacterial suspension of 10^7 (CFU/ml) prepared by using an SCD liquid medium (NIHON PHARMACEUTICAL CO., LTD.) diluted to 1/10 with ion exchange water was used as a bacterial suspension.
(§5) Note that, in this example, C12OH (1-dodecanol) was used as the metabolism controlling agent.

[2] = test system: Micrococcus aloeverae; experiment: Suppression of metabolism of 14-methylhexadecanoic acid on cotton fabric; conditions: agent 250 μg/fabric g
Protocol: (§6) A methanol solution in which 14-methylhexadecanoic acid (SIGMA-ALDRICH) was dissolved was added dropwise to 3 cm×3 cm pieces of sterilized plain-weave cotton fabric to make it adhered to the fabric. The adhesion amount of 14-methylhexadecanoic acid was set to 10 μg per piece of the plain-weave cotton fabric (100 μg/fabric g).
(§7) Further, a methanol solution in which each metabolism controlling agent was dissolved was prepared and added dropwise to the fabric to which 14-methylhexadecanoic acid adhered, and it was thereafter dried for an hour. This fabric was placed in a sterilized screw tube bottle No. 3 (Maruemu Corporation) and 100 μl of the bacterial suspension was inoculated thereto, and culture was carried out under 37° C.; conditions for 21 hours.
(§8) 3 ml of methanol was added to the screw tube bottle after culture, and extraction was carried out under ultrasonic irradiation for 30 minutes (20° C.). The extraction liquid was mixed with a (trimethylsilyl)diazomethane hexane solution (FUJIFILM Wako Pure Chemical Corporation) at 9:1 (volume ratio) and left overnight under room temperature and dark place conditions. After that, 14-methylhexadecanoic acid remaining on the fabric was quantified by GC. The quantification conditions for GC are as follows. • GC: Agilent 7890A • GC column: Agilent DB-1 30 m×250 μm×0.25 μm • Temperature rise condition: 50° C. (held for 3 minutes)-(10° C./min)-300° C. (held for 5 minutes) • Sample injection volume: 1 μl • Split ratio: 1:12 • Detector: FID
(§9) The residual amount of 14-methylhexadecanoic acid after culture on the fabric to which the metabolism controlling agent was added was quantified, and the ratio of the residual amount to that of 14-methylhexadecanoic acid in the case of adding no metabolism controlling agent (control) was calculated as a metabolism suppression rate (%). The higher a numerical value thereof is, the more the metabolism is suppressed. Note that the metabolism suppression rate was determined by the following formula:
(§10) Metabolism suppression rate(%)=[1−(100−A)/(100−B)]×100 • A: residual amount of 14-methylhexadecanoic acid of example or comparative example (μg/fabric g) • B: residual amount of 14-methylhexadecanoic acid of control (μg/fabric g)
as §2, §3, §4, §5

[3] = test system: Escherichia coli (NBRC3972); experiment: Suppression of metabolite 4-methylhexanoic acid from 14-methylhexadecanoic acid
Protocol: (§11) After culture on fabric prepared in the same manner as in the above (1), 3 ml of methanol was added, and extraction was carried out under ultrasonic irradiation for 30 minutes (20° C.). The extraction liquid was mixed with (a 1000 ppm methanol solution of) an ADAM reagent of Funakoshi Co., Ltd. at 1:1 (volume ratio) and left overnight under room temperature and dark place conditions. After that, 4-methyl-3-hexenoic acid as a metabolite from 14-methylhexadecanoic acid was quantified by HPLC. The quantification conditions are as follows.
(§12) The production amount of 4-methyl-3-hexenoic acid after culture on the fabric to which each metabolism controlling agent was added was quantified, and the ratio of the production amount to that of 4-methyl-3-hexenoic acid in the case of adding no metabolism controlling agent (control) was calculated as a metabolite suppression rate (%). The higher a numerical value thereof is, the more the metabolism is suppressed. Note that the metabolite suppression rate was determined by the following formula:
(§13) Metabolite suppression rate(%)=100×[(D−C)/D] • C: production amount of metabolite of example or comparative example (μg/fabric g) • D: production amount of metabolite of control (μg/fabric g)
(§14) The metabolism of 14-methylhexadecanoic acid by bacteria of the genus Escherichia (Escherichia coli) was tested in the same manner as in example 1.
(§15) In this example, Escherichia coli (NBRC3972) was used as a microorganism.
(§16) Further, in this example, a bacterial suspension of 10^6 (CFU/ml) prepared by using an NB liquid medium diluted to 1/10 with ion exchange water was used as a bacterial suspension.
(§17) Further, in this example, 4-methylhexanoic acid was quantified as a metabolite from 14-methylhexadecanoic acid, and the metabolite suppression rate was determined in the same manner as in example 1.
as §5

[4] = test system: Escherichia coli (NBRC3972); experiment: Measurement of viable bacterial count on fabric
Protocol: as §1, §14, §15, §16, §5

[5] = test system: Escherichia coli (NBRC3972); experiment: Suppression of metabolism of 14-methylhexadecanoic acid on cotton fabric
Protocol: as §6, §7, §8, §9, §10, §14, §15, §16, §5

[6] = test system: Rhodotorula mucilaginosa; experiment: as above; conditions: agent 250 μg/fabric g
Protocol: as §6, §7, §8, §9, §10
The metabolism of 14-methylhexadecanoic acid by yeast of the genus Rhodotorula was tested in the same manner as in example 1.
In this example, Rhodotorula mucilaginosa (strain isolated from clothing) was used as a microorganism.
Further, in this example, the bacteria were precultured under conditions of a PDA agar medium (Difco), 30° C.; and 48 hours.
Further, in this example, a bacterial suspension of 10^7 (CFU/ml) prepared by using a PDB liquid medium (Difco) diluted to 1/10 with ion exchange water was used as a bacterial suspension.

[7] = test system: Staphylococcus aureus; experiment: Measurement of viable bacterial count on fabric; conditions: agent 250 μg/fabric g
Protocol: as §1
(§18) The metabolism of 14-methylhexadecanoic acid by bacteria of the genus Staphylococcus (Staphylococcus aureus) was tested in the same manner as in example 1.
(§19) In this example, Staphylococcus aureus (strain isolated from clothing) was used as a microorganism.
(§20) Further, in this example, a bacterial suspension of 10^7 (CFU/ml) prepared by using an NB liquid medium diluted to 1/10 with ion exchange water was used as a bacterial suspension.
as §5

[8] = test system: Micrococcus aloeverae; experiment: Suppression of metabolite 2-methylbutanoic acid from 14-methylhexadecanoic acid; conditions: agent 250 μg/fabric g
Protocol: as §11, §12, §13, §2, §3, §4
Further, in this example, 2-methylbutanoic acid was quantified as a metabolite from 14-methylhexadecanoic acid, and the metabolite suppression rate was determined in the same manner as in example 1.
as §5

[9] = test system: Staphylococcus aureus; experiment: Suppression of metabolism of 14-methylhexadecanoic acid on cotton fabric; conditions: agent 250 μg/fabric g
Protocol: as §6, §7, §8, §9, §10, §18, §19, §20

[10] = test system: Staphylococcus aureus; experiment: Suppression of metabolite 4-methylhexanoic acid from 14-methylhexadecanoic acid; conditions: agent 250 μg/fabric g
Protocol: as §11, §12, §13, §18, §19, §20, §17, §5

[11] = test system: Rhodotorula mucilaginosa; experiment: as above; conditions: agent 250 μg/fabric g
Protocol: The extraction liquid was mixed with (a 1000 ppm methanol solution of) an ADAM reagent of Funakoshi Co., Ltd. at 1:1 (volume ratio) and left overnight under room temperature and dark place conditions. […] The quantification conditions are as follows. […] The higher a numerical value thereof is, the more the metabolism is suppressed. Note that the metabolite suppression rate was determined by the following formula: […] In this example, Rhodotorula mucilaginosa (strain isolated from clothing) was used as a microorganism. Further, in this example, the bacteria were precultured under conditions of a PDA agar medium (Difco), 30° C.; and 48 hours. Further, in this example, a bacterial suspension of 10^7 (CFU/ml) prepared by using a PDB liquid medium (Difco) diluted to 1/10 with ion exchange water was used as a bacterial suspension.

Row | SMILES | Bacterial count (Log (cfu/fabric cm^2)) [1] | Metabolism suppression rate (%) [2] | Metabolite suppression rate (%) ([3]; agent 1000 μg/fabric g) | Bacterial count (Log (cfu/fabric cm^2)) ([4]; agent 500 μg/fabric g) | Bacterial count (Log (cfu/fabric cm^2)) ([4]; agent 1000 μg/fabric g) | Metabolism suppression rate (%) ([5]; agent 500 μg/fabric g) | Metabolism suppression rate (%) ([5]; agent 1000 μg/fabric g) | Metabolism suppression rate (%) [6] | Bacterial count (Log (cfu/fabric cm^2)) [7] | Metabolite suppression rate (%) [8] | Metabolism suppression rate (%) [9] | Metabolite suppression rate (%) [10] | Metabolite suppression rate (%) [11] | Metabolite suppression rate (%) ([3]; agent 500 μg/fabric g)
1 | CCCCCCCCCCCCCCCCCCO [Example C18OH, 1-octadecanol, reference compound] | 6.8 Log (cfu/fabric cm^2) | −7% | 0% | 6.2 Log (cfu/fabric cm^2) | 5.9 Log (cfu/fabric cm^2) | −15% | 3% | 2% | 5.6 Log (cfu/fabric cm^2) | 1% | −1% |  |  | 
2 | CCCCCCCCCCCCOCCOCCOCCOCCOCCO [Example C12E5, pentaethylene glycol mono-1-dodecyl ether, reference compound] | 6.6 Log (cfu/fabric cm^2) | −3% |  |  |  |  |  |  |  | 6% |  |  |  | 
3 | CCCCCCCCCCCCCCCCO [Example C16OH, 1-hexadecanol] |  |  | 27% |  | 6.6 Log (cfu/fabric cm^2) |  | 18% | 24% | 6.1 Log (cfu/fabric cm^2) |  | 16% | 20% | 38% | 
4 | CCCCCCCCCO [Example C9OH, 1-nonyl alcohol] |  |  | 33% | 6.5 Log (cfu/fabric cm^2) | 6.3 Log (cfu/fabric cm^2) | 13% | 25% | 14% |  |  |  |  | 21% | 31%
5 | CCCCCCCCCCCCOCCO [Example C12E1, ethylene glycol mono-1-dodecyl ether] |  |  |  |  |  |  |  | 24% |  |  |  |  | 41% | 
6 | CCCCCCCCCCCCCO [Example C13OH, 1-tridecanol] | 6.7 Log (cfu/fabric cm^2) | 41% |  |  |  |  |  |  |  | 59% |  |  |  | 
7 | CCCCCCCCCCCCOCCOCCO [Example C12E2, diethylene glycol mono-1-dodecyl ether, reference compound] | 6.8 Log (cfu/fabric cm^2) | −11% |  | 6.5 Log (cfu/fabric cm^2) |  | −2% |  |  |  | 8% | 7% |  |  | −2%
8 | CCCCCCCCCCCCCCO [Example C14OH, 1-tetradecanol] |  |  | 77% | 6.7 Log (cfu/fabric cm^2) | 6.5 Log (cfu/fabric cm^2) | 27% | 67% | 14% | 5.6 Log (cfu/fabric cm^2) |  | 42% | 53% | 45% | 47%
9 | CCCCCCCCCCO [Example C10OH, 1-decanol] | 7.0 Log (cfu/fabric cm^2) | 33% | 75% | 6.5 Log (cfu/fabric cm^2) | 6.4 Log (cfu/fabric cm^2) | 16% | 38% | 51% | 5.5 Log (cfu/fabric cm^2) | 51% | 16% | 35% | 46% | 42%

— US20220408724A1, “METHOD FOR CONTROLLING METABOLISM OF BRANCHED FATTY ACID” (KAO CORPORATION, priority 2019, published 2022)
